Measured values published in patent publication US12404242B2, “Compositions and methods for making and using small molecules in the treatment of cancer” (Reglagene, Inc., priority 2021, dated 2025).
Values after ≈ are worked out from the molar mass of the structure shown. Like-named read-outs stand apart in the source and are kept apart here.

Legend:
MCF7 cells = experiment: Cell viability (AlamarBlue), MCF7 breast cancer cells; format: cell-based; settings: Homo sapiens, 72 hours of treatment
Method: (§1) In another exemplary method, half maximal effective concentration (EC50) was determined for some compounds and their isomers as disclosed herein in a variety of human cancer cell lines. In brief, cells from two prostate cancer cell lines (LNCaP, 22RV1), one glioblastoma cell line (U87), one breast cancer cell line (MCF7), a glioma cell line (LN18), a normal prostate cell line (RWPE1), and a glioblastoma cell line (T98G) were plated in a multi-well plate. After 24 hours, one of the compounds herein was added to the well at increasing concentrations. After 72 hours of treatment, cell viability was assessed using AlamrBlue® (Invitrogen) and fluorescence was read using the CLARIOstar Plus Multilabel Plate Reader (BMG Labtech). Samples were normalized to no treatment controls. EC50 values were determined using GraphPad Prism.

RWPE1 cells = experiment: Cell viability (AlamarBlue), RWPE1 normal prostate cells; format: cell-based, human; set-up: key to EC50 (μM) in RWPE1 cells: Inactive: less than 50% inhibition at the highest concentration tested at 50 μM; settings: normal prostate cell line; for EC50 (μM) in RWPE1 cells: 72 hours of treatment
Method: as §1

LNCaP cells = experiment: Cell viability (AlamarBlue), LNCaP prostate cancer cells; format: cell-based, human; settings: 72 hours of treatment
Procedure, shortened: (§2)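 Following a 72-hour incubation with escalating compound doses, applied one day after seeding, AlamarBlue fluorescence gave viability relative to untreated cells, from which half-maximal effective concentrations were calculated.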

22RV1 cells = experiment: Cell viability (AlamarBlue), 22RV1 prostate cancer cells; format: cell-based, human; settings: 72 hours of treatment
Procedure, shortened: as §2

U87 cells = experiment: Cell viability (AlamarBlue), U87 glioblastoma cells; format: cell-based, human; set-up: key to EC50 (μM) in U87 cells: Inactive: less than 50% inhibition at the highest concentration tested at 50 μM; settings: 72 hours of treatment
Procedure, shortened: as §2

[1] = Kinetic solubility in aqueous PBS buffer (HPLC-MS); format: physicochemical; settings: kinetic from dmso stock
Method: In another exemplary method, central nervous system multiparameter optimization (CNS MPO) score and kinetic solubility of selected compounds was determined. CNS MPO score for compounds and their isomers disclosed herein were calculated using an algorithm that uses a weighted scoring function assessing 6 key physicochemical properties (clogP, clogD, MW, TPSA, HBD, and pKa) for blood-brain-barrier (BBB penetration). CNS MPO score ranged from 0 and 6.0 with scores≥4.0 used as a cut-off to select compounds that can have a high probability of accumulating in the CNS. Kinetic solubility of a compound is the maximum solubility of the fastest precipitating species of the compound. Kinetic solubility was determined by preparing a concentrated stock solution for compounds and their isomers disclosed herein in an organic solvent (DMSO), after which the solution was mixed with an aqueous PBS buffer and then filtered. Filtrate was tested to quantify the kinetic solubilty using HPLC-MS calibration curve. The CNS MPO Score and kinetic solubility of the compounds tested are provided in Table 7 where “ND” means not determined.

cancer cell = experiment: Cancer cell viability, cell line not stated (per-compound ranges in description); format: cell-based; settings: 'In some embodiments', values worded 'about', read-out: EC50 in cancer cell viability (range stated in description)
Method: as §1

[2] = DMSO stock mixed with aqueous PBS buffer, filtered, read-out: Kinetic Solubility
[3] = 'In some embodiments', values worded 'about', read-out: kinetic solubility (range stated in description)

Row | EC50 (MCF7 cells) [µM] | EC50 (LNCaP cells; Homo sapiens, LNCaP, 72 h) [µM] | EC50 (22RV1 cells; Homo sapiens, 22Rv1, 72 h) [µM] | EC50 (U87 cells; Homo sapiens, U-87 MG, 72 h) [µM] | EC50 (cancer cell) [µM] | solubility kinetic [1, 3] [µM] | Structure (SMILES) | EC50 (μM) in RWPE1 cells (RWPE1 cells) | further results
1 | 11.5 |  |  |  |  |  | COC1CC(C(=O)NC(=O)Nc2ccc(Oc3ccc(F)cn3)c(C)c2)C1 (single isomer, unassigned) [Compound 15A, N-((4-((5-fluoropyridin-2-yl)oxy)-3-methylphenyl)carbamoyl)-3-methoxycyclobutanecarboxamide] | Inactive | EC50 (LNCaP cells): 1.6 µM; EC50 (22RV1 cells): 4.1 µM; EC50 (U87 cells): 5.5 µM
2 | 12.7 | 2.9 |  |  |  |  | COC1CC(C(=O)NC(=O)Nc2ccc(Oc3ccc(C#N)cn3)c(C)c2)C1 (single isomer, unassigned) [Compound 16A, N-((4-((5-cyanopyridin-2-yl)oxy)-3-methylphenyl)carbamoyl)-3-methoxycyclobutane-1-carboxamide] | Inactive | EC50 (22RV1 cells): 5.8 µM; EC50 (U87 cells): 10 µM
3 | 5.8 |  |  |  |  |  | COC1CC(C(=O)NC(=O)Nc2ccc(Oc3ncc(Cl)cn3)c(C)c2)C1 (single isomer, unassigned) [Compound 20A, N-((4-((5-chloropyrimidin-2-yl)oxy)-3-methylphenyl)carbamoyl)-3-methoxycyclobutane-1-carboxamide] | Inactive | EC50 (LNCaP cells): 0.87 µM; EC50 (22RV1 cells): 1.5 µM; EC50 (U87 cells): 2.6 µM
4 | 3.4 | 2.4 | 3.7 | 6 |  |  | COC1CCC(C(=O)NC(=O)Nc2ccc(Oc3ncc(Cl)cn3)c(C)c2)CC1 (centres unmarked) [Compound 1, N-((4-((5-chloropyrimidin-2-yl)oxy)-3-methylphenyl)carbamoyl)-4-methoxycyclohexane-1-carboxamide] | Inactive | solubility kinetic [1, 2]: 4.9 µM (≈ 2.05 µg/mL)
5 | 20.9 | 19 | 41 |  |  |  | Cc1cc(NC(=O)NC(=O)C2COC2)ccc1Oc1ncc(Cl)cn1 [Compound 2, 1-{4-[(5-chloropyrimidin-2-yl)oxy]-3-methylphenyl}-3-(oxetane-3-carbonyl)urea] |  | 
6 | 2.4 | 2.8 | 2.9 | 4.4 |  |  | COC1CCC(C(=O)NC(=O)Nc2ccc(Oc3ccc(Cl)cn3)c(C)c2)CC1 (centres unmarked) [Compound 7, N-((4-((5-chloropyridin-2-yl)oxy)-3-methylphenyl)carbamoyl)-4-methoxycyclohexane-1-carboxamide] | Inactive | solubility kinetic [1, 2]: 0.49 µM (≈ 0.205 µg/mL)
7 | 24.3 | 27.5 | 26 | 36 |  |  | COC1CCC(C(=O)NC(=O)Nc2ccc(Oc3ncc(F)cn3)c(C)c2)CC1 (centres unmarked) [Compound 8, 3-{4-[(5-fluoropyrimidin-2-yl)oxy]-3-methylphenyl}-1-(4-methoxycyclohexanecarbonyl)urea] | Inactive | 
8 | 8.5 | 11.5 | 5.1 | 4.9 |  |  | COC1CCC(C(=O)NC(=O)Nc2ccc(Oc3ccc(F)cn3)c(C)c2)CC1 (centres unmarked) [Compound 9, 3-{4-[(5-fluoropyridin-2-yl)oxy]-3-methylphenyl}-1-(4-methoxycyclohexanecarbonyl)urea] | Inactive | 
9 | 12.9 | 13 | 12.5 | 33.5 |  |  | COC1CCC(C(=O)NC(=O)Nc2ccc(Oc3ncccn3)c(C)c2)CC1 (centres unmarked) [Compound 10, 1-(4-methoxycyclohexanecarbonyl)-3-[3-methyl-4-(pyrimidin-2-yloxy)phenyl]urea] | Inactive | 
10 | 1.9 | 3.1 | 1.9 | 1.9 |  |  | COC1CCC(C(=O)NC(=O)Nc2ccc(Oc3ccc(Cl)cn3)c(F)c2)CC1 (centres unmarked) [Compound 12, N-((4-((5-chloropyridin-2-yl)oxy)-3-fluorophenyl)carbamoyl)-4-methoxycyclohexane-1-carboxamide] |  | solubility kinetic [1, 2]: 0.28 µM (≈ 0.118 µg/mL); EC50 (RWPE1 cells; Homo sapiens, RWPE-1, 72 hours of treatment): 6.1 µM
11 | 11.3 | 17.4 | 14.1 |  |  |  | COC1CCC(C(=O)NC(=O)Nc2ccc(Oc3ncccn3)c(F)c2)CC1 (centres unmarked) [Compound 13, 3-[3-fluoro-4-(pyrimidin-2-yloxy)phenyl]-1-(4-methoxycyclohexanecarbonyl)urea] |  | 
12 | 2.5 | 6.3 | 17.8 | 22 |  |  | COC1CC(C(=O)NC(=O)Nc2ccc(Oc3cnc(N4CCOCC4)nc3)c(C)c2)C1 (centres unmarked) [Compound 44, 3-methoxy-N-((3-methyl-4-((2-morpholinopyrimidin-5-yl)oxy)phenyl)carbamoyl)cyclobutane-1-carboxamide] |  | solubility kinetic [1, 2]: 0.95 µM (≈ 0.419 µg/mL)
13 | 0.6 | 0.88 | 1.2 | 0.32 |  |  | COC1CC(C(=O)NC(=O)Nc2ccc(Oc3ncc(C)s3)c(C)c2)C1 (centres unmarked) [Compound 60, 3-methoxy-N-((3-methyl-4-((5-methylthiazol-2-yl)oxy)phenyl)carbamoyl)cyclobutane-1-carboxamide] |  | 
14 | 9.4 | 10.4 | 12.5 |  |  |  | Cc1cc(NC(=O)NC(=O)C2CCCCC2)ccc1Oc1ncc(Cl)cn1 [Compound 71, N-((4-((5-chloropyrimidin-2-yl)oxy)-3-methylphenyl)carbamoyl)cyclohexanecarboxamide] | Inactive | EC50 (μM) in U87 cells (U87 cells): Inactive
15 |  |  |  |  | 0.034 to 0.065 | 1.5 to 3.5 (≈ 0.631 to 1.47 µg/mL) | COC12CC(C(=O)NC(=O)Nc3cc(C)c(Oc4ncc(Cl)cn4)c(F)c3)(C1)C2 [drawing 277, N-((4-((5-chloropyrimidin-2-yl)oxy)-3-fluoro-5-methylphenyl)carbamoyl)-3-methoxybicyclo[1.1.1]pentane-1-carboxamide] |  | 
16 |  |  |  |  | 0.01 to 0.05 | 7 to 11 (≈ 2.53 to 3.98 µg/mL) | COC1CC(C(=O)NC(=O)Nc2ccc(C)c(Oc3nccs3)c2)C1 (centres unmarked) [drawing 279, 3-methoxy-N-((4-methyl-3-(thiazol-2-yloxy)phenyl)carbamoyl)cyclobutane-1-carboxamide] |  | 
17 |  |  |  |  | 0.002 to 0.007 | 10 to 14 (≈ 3.55 to 4.98 µg/mL) | COC1CC(C(=O)NC(=O)Nc2ccc(C)c(Oc3ccccn3)c2)C1 (centres unmarked) [drawing 280, 3-methoxy-N-((4-methyl-3-(pyridin-2-yloxy)phenyl)carbamoyl)cyclobutane-1-carboxamide] |  | 
18 |  |  |  |  | 0.005 to 0.03 | 5 to 9 (≈ 1.87 to 3.36 µg/mL) | COC1CC(C(=O)NC(=O)Nc2ccc(C)c(Oc3ccc(F)cn3)c2)C1 (centres unmarked) [drawing 281, N-((3-((5-fluoropyridin-2-yl)oxy)-4-methylphenyl)carbamoyl)-3-methoxycyclobutane-1-carboxamide] |  | 
19 |  |  |  |  | 0.02 to 0.06 | 13 to 17 (≈ 4.63 to 6.06 µg/mL) | COC1CC(C(=O)NC(=O)Nc2ccc(C)c(Oc3ncccn3)c2)C1 (centres unmarked) [drawing 282, 3-methoxy-N-((4-methyl-3-(pyrimidin-2-yloxy)phenyl)carbamoyl)cyclobutane-1-carboxamide] |  | 
20 |  |  |  |  | 0.011 to 0.02 | 4 to 8 (≈ 1.47 to 2.95 µg/mL) | COC12CC(C(=O)NC(=O)Nc3ccc(C)c(Oc4ncccn4)c3)(C1)C2 [drawing 283, 3-methoxy-N-((4-methyl-3-(pyrimidin-2-yloxy)phenyl)carbamoyl)bicyclo[1.1.1]pentane-1-carboxamide] |  | 
